In general, MIC refers to the least concentration at which growth counts as inhibited. What is called IC50 is the point on the concentration scale where inhibition reaches its midpoint.

Molecules are shown by their SMILES. Values after ≈ are worked out from the molar mass of the structure shown. Like-named read-outs stand apart in the source and are kept apart here.

The test system of data set [1] is S. epidermidis ATCC 14990. Nature of the data set: MIC determination, reference strain (microdilution). The conditions noted are these: Staphylococcus epidermidis, ATCC14990; S. epidermidis ATCC 14990; Co-trimoxazole as sulfamethoxazole/trimethoprim; read-out: MIC. It counts as cell-based.
In data set [2] the test system is E. hirae ATCC 10541. The description is as above. The format is cell-based. As to conditions: Enterococcus hirae, ATCC10541; E. hirae ATCC 10541; Co-trimoxazole as sulfamethoxazole/trimethoprim; read-out: MIC.
Data set [3] deals with C. diphtheriae. The description is as above. The conditions noted are these: Corynebacterium diphtheriae; C. diphtheriae; Co-trimoxazole as sulfamethoxazole/trimethoprim; read-out: MIC. It counts as cell-based.
Data set [4] has as its system HeLa cells. Description: MTT assay. It counts as cell-based, human. As to conditions: for IC50: HeLa, MTT, 24 h treatment; for Selectivity index (SI): IC50 HEK-293 / IC50 HeLa.
Data set [5] concerns HEK-293 cells. Nature of the data set: MTT assay, noncancerous cells. The format is cell-based. The conditions noted are these: Homo sapiens, HEK293; HEK-293; MTT, 24 h treatment; read-out: IC50. (Tetrazolium assays rely on reduction of a dye to a coloured formazan, in cell work by metabolically active cells.)
Data set [6] concerns C. albicans ATCC 10231. Description: MIC determination, reference fungal strain (microdilution). It counts as cell-based. The conditions noted are these: Candida albicans, ATCC10231; C. albicans ATCC 10231; read-out: MIC. In general terms: In broth dilution the organism is exposed to a series of concentrations in liquid medium.
Data set [7] relates to S. aureus ATCC 6538. Nature of the data set: MIC determination, reference strain (microdilution). It counts as cell-based. As to conditions: Staphylococcus aureus, ATCC6538; S. aureus ATCC 6538; ± SD; Co-trimoxazole as sulfamethoxazole/trimethoprim; read-out: MIC.
The nature of data set [8]: ABTS assay. As to conditions: ABTS radical scavenging; 10 min, 30 °C. The method, then: The ABTS assay was performed spectrophotometrically. […] ABTS solution with methanol/DMSO (9/1 v/v) was used as a control. After 10 min of incubation at 30 °C in the dark, the absorbance was analyzed at λ = 750 nm by a 96-well microplate reader (Epoch, BioTek System, Santa Clara, CA, USA). Ascorbic acid was used as a standard.
ABTS inhibition was calculated by the following equation:ABTS Inhibition (%) = [Acontrol − Asample)/Acontrol] × 100%
(§1) IC50 values of the samples were calculated using program GraFit v. 7.0 (Erithacus Software). The analysis was performed three times, with tree replications in each (n = 9). Statistical analysis was performed with one-way ANOVA with Tuckey’s post-hoc test.

The test system of data set [9] is Staphylococcus sp. and Enterococcus sp. Nature of the data set: MIC, summary statements on reference Gram-positive cocci. The format is cell-based. The conditions noted are these: Staphylococcus and Enterococcus species, reference Gram-positive cocci (range over strains). How it is done: Sterile sheep blood defibrinated (GrasoBiotech). Co-trimoxazole (composition sulfamethoxazole 400 mg/trimethoprim 80 mg; WZF Polfa Poland). Ketoconazole (WZF Polfa Poland). Bacteria: Enterococcus hirae ATCC 10541 and Enterococcus faecalis ATCC 51299, Staphylococcus epidermidis ATCC 14990, Staphylococcus aureus ATCC 6538, clinical strains Staphylococcus aureus MRSA, clinical strains Staphylococcus sp. (MRCNS), clinical strain Staphylococcus epidermidis MRSE, clinical strain Enterococcus sp., Corynebacterium diphtheriae ZMF, Bacillus subtilis ATCC 6633, Escherichia coli ATCC 8739, Candida albicans ATCC 10231. Brain-heart infusion broth (BHI, Becton Dickinson) for Enterococcus hirae ATCC 10541 and Enterococcus faecalis ATCC 51299, BHI supplement with 10% bovine serum for Bacillus subtilis, Corynebacterium diphtheriae ZMF, Staphylococcus epidermidis ATCC 14990, Staphylococcus aureus ATCC 6538, clinical strains Staphylococcus aureus MRSA, clinical strains Staphylococcus sp. (CNS), clinical strain Staphylococcus epidermidis MRSE grew in Mueller-Hinton broth (MH cation-adjusted, Becton Dickinson) in an aerobic atmosphere at 37 °C for 48 h, in an aerobic atmosphere at 37 °C for 72 h. Candida albicans grew in Sabourauda broth (Sb, Becton Dickinson), in an aerobic atmosphere at 37 °C for 72 h. After determination of the bacterial viability, BHI blood agar plates, MH agar plates, and Sb agar plates were used.
The MIC determination for the reference and clinical strains was performed based on the methodology described by Kula et al.. The dry test samples were dissolved in dimethyl sulfoxide (DMSO) and diluted in water, resulting in a finale concentration of about 500 µg/mL. These solutions were diluted and added to the first well of each microtiter line. Dilution in geometric progression was done by transferring the mixture/dilution (100 μL) from the first to the twelfth well. An aliquot (100 μL) was discarded from the twelfth well. The final concentration of the samples used in the antimicrobial activity assay ranged from 125 to 0.006 µg/mL. Co-trimoxazole (for bacteria), with the composition sulfamethoxazole 400 mg/trimethoprim 80 mg was used as a reference compound in the concentration range of 20 000/4000 to 1/0.2 µg/mL. Ketoconazole (for fungi) was used as a reference compound in the concentration range of 125 to 0.006 µg/mL. Tests were incubated in adequate conditions described by Kula et al.. Diluent concentration had no effect on the activity of the tested compounds. All experiments were carried out three times.

Data set [10] has as its system E. faecalis ATCC 51299. Description: MIC determination, reference strain (microdilution). The conditions noted are these: Enterococcus faecalis, ATCC51299; E. faecalis ATCC 51299; Co-trimoxazole as sulfamethoxazole/trimethoprim; read-out: MIC. It counts as cell-based.
The test system of data set [11] is E. coli ATCC 8739. The data set is described as above. It counts as cell-based. As to conditions: Escherichia coli, ATCC8739; E. coli ATCC 8739; Co-trimoxazole as sulfamethoxazole/trimethoprim; read-out: MIC.
Data set [12] deals with clinical methicillin-resistant S. aureus (MRSA) strains. Nature of the data set: MIC on clinical MRSA strains. The format is cell-based. As to conditions: Staphylococcus aureus, MRSA / VISA; strains MRSA12673, MRSA21804, MRSA18532, MRSA12647 and MRSAN315 VISA. From the text: In the next step, we evaluated the compounds on clinical methicillin-resistant S. aureus (MRSA) strains (Figure 2) and methicillin-resistant coagulase-negative Staphylococcus (MRCNS) (Figure 3). The group of CNS includes nonpathogenic or opportunistic pathogens, while coagulase-positive staphylococci are represented by S. aureus. About 30% of the human population carries S. aureus in the upper respiratory tract. Infections caused by S. aureus include all purulent skin conditions (boils, abscesses, folliculitis) and nosocomial infections. The strains isolated from hospitals are usually antibiotic-resistant, where MRSA strains are the majority. Staphylococcus epidermidis (like other coagulase-negative Staphylococcus) is included in the microflora of human skin and can easily cause surface contamination after surgical procedures.
Sterile sheep blood defibrinated (GrasoBiotech). Co-trimoxazole (composition sulfamethoxazole 400 mg/trimethoprim 80 mg; WZF Polfa Poland). Ketoconazole (WZF Polfa Poland). Bacteria: Enterococcus hirae ATCC 10541 and Enterococcus faecalis ATCC 51299, Staphylococcus epidermidis ATCC 14990, Staphylococcus aureus ATCC 6538, clinical strains Staphylococcus aureus MRSA, clinical strains Staphylococcus sp. […]

In data set [13] the test system is cancer cells (HeLa, SKOV-3, MCF-7). Nature of the data set: MTT assay, summary statements on the cancer cells. It counts as cell-based. The conditions noted are these: Homo sapiens, cell line not specified.
Data set [14] deals with SKOV-3 cells. Description: MTT assay. The format is cell-based, human. As to conditions: for IC50: Homo sapiens, SK-OV-3, SKOV-3, MTT, 24 h treatment, read-out: IC50; for Selectivity index (SI): IC50 HEK-293 / IC50 SKOV-3.
The subject of data set [15] is MCF-7 cells. Description: MTT assay. It counts as cell-based, human. As to conditions: for IC50: Homo sapiens, MCF7, MCF-7, MTT, 24 h treatment, read-out: IC50; for Selectivity index (SI): IC50 HEK-293 / IC50 MCF-7.
Data set [16] relates to B. subtilis ATCC 6633. Description: MIC determination, reference strain (microdilution). It counts as cell-based. The conditions noted are these: Bacillus subtilis, ATCC6633; B. subtilis ATCC 6633; Co-trimoxazole as sulfamethoxazole/trimethoprim; read-out: MIC.
Data set [17] is described as follows: DPPH assay. The conditions noted are these: DPPH radical scavenging; 40 min, room temperature. The method, then:
The DPPH assay was performed spectrophotometrically. The amount of 30 µL of different concentrations of samples, dissolved in methanol/DMSO (9/1 v/v), was mixed with 170 µL of 0.06 mM DPPH methanolic solution and completed with methanol to a final volume of 300 µL. DPPH methanolic solution with methanol/DMSO (9/1 v/v) was used as a control. After 40 min of incubation at room temperature in the dark, the absorbance was analyzed at λ = 510 nm by a 96-well microplate reader (Epoch, BioTek System, Santa Clara, CA, USA). Ascorbic acid was used as a standard.
DPPH inhibition was calculated by the following equation:DPPH Inhibition (%) = [Acontrol − Asample)/Acontrol] × 100%
as §1

For data set [18], the system named is clinical strains of Enterococcus sp. Description: MIC on clinical Enterococcus strains. It counts as cell-based.
The nature of data set [19]: in vitro. The conditions noted are these: sheep, defibrinated sheep blood diluted 1:9 v/v with PBS, pH 7.
Data set [20] has as its system mouse melanoma B16–F10 cell line. More on the design: method as in PMID 21783370. The conditions noted are these: cited from earlier work.
Where [21] appears, read: Homo sapiens, 24 h, read-out: IC50.

With `Cc1cc(S(=O)(=O)NC(=O)/C=C/c2ccc(Br)cc2)c(SCc2cc3c(cc2Cl)OCO3)cc1Cl` [Compound 17a, (E)-3-(4-Bromophenyl)-N-{4-chloro-2-[(6-chlorobenzo[d][1,3]dioxol-5-yl)methylthio]-5-methylphenylsulfonyl}acrylamide], the MIC in data set [1] was 1 ± 0.58 µg/mL (≈ 1.63 µM); in data set [2], 2 ± 0.58 µg/mL (≈ 3.25 µM); in data set [3], more than 125 µg/mL; in [6] it was more than 125 µg/mL; in [7], 1 ± 0.29 µg/mL (≈ 1.63 µM); in data set [9] it was 1 to 2 µg/mL (≈ 1.63 to 3.25 µM). For the same compound, the minimum inhibitory concentration (MIC) in data set [10] was 2 ± 0.58 µg/mL (≈ 3.25 µM); in data set [11] it was more than 125 µg/mL; in [12], 8 to 16 µg/mL (≈ 13 to 26 µM); in data set [16] it was 62.5 ± 0.29 µg/mL (≈ 102 µM). The IC50 was 8.49 ± 0.49 µg/mL (≈ 13.8 µM) in data set [4]; less than 10 µg/mL in data set [4] (setting [21]); 6.49 ± 0.46 µg/mL (≈ 10.5 µM) in data set [5]; less than 10 µg/mL in data set [13] (MTT); not above 20 µM in data set [13] (µg/mL bound converted); 13.15 ± 0.05 µg/mL (≈ 21.4 µM) in [14]. The IC50 in [15] was 13 ± 0.66 µg/mL (≈ 21.1 µM). Besides, the “Selectivity index (SI)” value is listed as 0.8 in [4], 0.5 in data set [14] and 0.5 in data set [15]. For the same compound, the “IC50 ABTS” value in [8] is given as 569.99 ± 7.9 µg/mL (≈ 926 µM). The “IC50 DPPH” value in data set [17] amounted to 790.52 ± 1.44 µg/mL (≈ 1280 µM).
As to `Cc1cc(S(=O)(=O)NC(=O)/C=C/c2ccc(F)cc2)c(SCc2cc3c(cc2Cl)OCO3)cc1Cl` [Compound 17b, (E)–N–{4–Chloro–2–[(6–chlorobenzo[d][1,3]dioxol–5–yl)methylthio]–5–methylphenylsulfonyl}–3–(4–fluorophenyl)acrylamide], the MIC in data set [1] was 2 ± 0.58 µg/mL (≈ 3.61 µM); in [2] it was 4 ± 0.15 µg/mL (≈ 7.21 µM); in data set [3] it was more than 125 µg/mL; in [18] (Enteroccoccus sp. 3934825) it was more than 125 µg/mL; in data set [18] (Enterococcus sp. 12848) it was more than 125 µg/mL; in data set [18] (Enterococcus sp. 3937152, read-out: MIC) it was more than 125 µg/mL. For the same compound, the MIC in [6] was more than 125 µg/mL; in data set [7], 2 ± 0.29 µg/mL (≈ 3.61 µM); in data set [10] it was 4 ± 0.15 µg/mL (≈ 7.21 µM); in data set [11], more than 125 µg/mL; in [12], more than 125 µg/mL; in [16], 62.5 ± 0.29 µg/mL (≈ 113 µM). For the same compound, the IC50 in data set [4] (setting [21]) was found to be 12 ± 0.44 µg/mL (≈ 21.6 µM); in [5] it was 7.17 ± 0.44 µg/mL (≈ 12.9 µM); in data set [14], 11 ± 0.5 µg/mL (≈ 19.8 µM); in data set [15], 14.8 ± 0.66 µg/mL (≈ 26.7 µM). Besides, the “Selectivity index (SI)” value is on record as 0.6 in [4], 0.6 in data set [14] and 0.5 in [15]. Also, the “IC50 ABTS” value in [8] turned out to be 620.39 ± 1.29 µg/mL (≈ 1120 µM). This compound also had a hemolysis at 24 h, 62.5 µg/mL in [19] of 9%. The “IC50 DPPH” value in data set [17] was 652.93 ± 2.39 µg/mL (≈ 1180 µM).
As to `O=C(/C=C/c1ccc(F)cc1)NS(=O)(=O)c1ccc(F)cc1` [(E)–3–(4–fluorophenyl)–N–(4-fluorophenylsulfonyl)acrylamide], the IC50 in data set [20] was 0.8 µg/mL (≈ 2.47 µM).

The values are drawn from PMC10096175, “An In Vitro Antimicrobial, Anticancer and Antioxidant Activity of N–[(2–Arylmethylthio)phenylsulfonyl]cinnamamide Derivatives” (Molecules, 2023).
